Data from the supplement of paper PMC10307832.

What was measured:
Assay in all cases: relative viability (nuclei count vs DMSO), 5 days (fraction); higher = more cells survive
[1] = compound: CN(C)C/C=C/C(=O)Nc1cc2c(Nc3ccc(F)c(Cl)c3)ncnc2cc1O[C@H]1CCOC1 [Afatinib] + Nc1nc2[nH]cc(CCc3ccc(C(=O)N[C@@H](CCC(=O)O)C(=O)O)cc3)c2c(=O)[nH]1 [Pemetrexed] (partner 0.2 µM)
Outline: (§1)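 Each reported value is a median over duplicate plates. It expresses relative viability: treated-well nuclei count divided by vehicle-well nuclei count. Lung cancer cell lines in 1536-well plates were dosed by pin tool a day after seeding, alone with one drug or with a fixed anchor-drug dose plus five library-drug doses (not always all listed) in √10 steps, and nuclei were counted after 5 days.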

[2] = compound: CN(C)C/C=C/C(=O)Nc1cc2c(Nc3ccc(F)c(Cl)c3)ncnc2cc1O[C@H]1CCOC1 [Afatinib] + C[C@@H](Oc1cc(-c2cnn(C3CCNCC3)c2)cnc1N)c1c(Cl)ccc(F)c1Cl [Crizotinib] (partner 1 µM)
Outline: as §1

[3] = compound: CN(C)C/C=C/C(=O)Nc1cc2c(Nc3ccc(F)c(Cl)c3)ncnc2cc1O[C@H]1CCOC1 [Afatinib] + Cc1nc(Nc2ncc(C(=O)Nc3c(C)cccc3Cl)s2)cc(N2CCN(CCO)CC2)n1 [Dasatinib] (partner 0.075 µM)
Outline: as §1

[4] = compound: CN(C)C/C=C/C(=O)Nc1cc2c(Nc3ccc(F)c(Cl)c3)ncnc2cc1O[C@H]1CCOC1 [Afatinib] + CS(=O)(=O)CCNCc1ccc(-c2ccc3ncnc(Nc4ccc(OCc5cccc(F)c5)c(Cl)c4)c3c2)o1 [Lapatinib] (partner 2 µM)
Outline: as §1

Cell Line | relative viability ([1]; first compound 0.005 µM) | relative viability ([1]; first compound 0.01581 µM) | relative viability ([1]; first compound 0.05 µM) | relative viability ([1]; first compound 0.1581 µM) | relative viability ([1]; first compound 0.5 µM) | relative viability ([2]; first compound 0.005 µM) | relative viability ([2]; first compound 0.01581 µM) | relative viability ([2]; first compound 0.05 µM) | relative viability ([2]; first compound 0.5 µM) | relative viability ([3]; first compound 0.005 µM) | relative viability ([3]; first compound 0.01581 µM) | relative viability ([3]; first compound 0.05 µM) | relative viability ([3]; first compound 0.1581 µM) | relative viability ([3]; first compound 0.5 µM) | relative viability ([4]; first compound 0.005 µM) | relative viability ([4]; first compound 0.01581 µM) | relative viability ([4]; first compound 0.05 µM) | relative viability ([4]; first compound 0.1581 µM) | relative viability ([4]; first compound 0.5 µM) | relative viability ([2]; first compound 0.1581 µM)
CAL-12T | 1.22 | 0.928 | 1.46 | 0.491 | 0.855 | 1.06 | 0.629 | 0.64 | 0.357 | 0.261 | 0.236 | 0.193 | 0.189 | 0.194 | 0.694 | 0.757 | 0.714 | 0.546 | 0.638 | –
COR-L23 | 0.22 | 0.201 | 0.214 | 0.201 | 0.192 | 0.803 | 0.583 | 0.634 | 0.75 | 0.575 | 0.484 | 0.536 | 0.426 | 0.535 | 1.22 | 0.916 | 0.877 | 0.933 | 1.11 | 0.603
NCI-H1755 | 0.405 | 0.611 | 0.463 | 0.402 | 0.421 | 0.894 | 0.869 | 0.848 | 0.868 | 0.483 | 0.424 | 0.435 | 0.393 | 0.399 | 1.11 | 1.03 | 1.09 | 1.04 | 1.07 | 0.852
NCI-H1437 | 0.32 | 0.298 | 0.339 | 0.324 | 0.283 | 0.985 | 1.01 | 0.988 | 0.966 | 0.464 | 0.408 | 0.403 | 0.372 | 0.352 | 0.891 | 0.79 | 0.758 | 0.778 | 0.779 | 0.881
NCI-H2085 | 0.821 | 0.671 | 0.842 | 0.681 | 0.699 | 0.925 | 0.657 | 0.763 | 0.778 | 0.238 | 0.263 | 0.22 | 0.199 | 0.212 | 0.857 | 0.762 | 0.851 | 0.743 | 0.76 | 0.66
H3255 | 0.365 | 0.313 | 0.306 | 0.307 | 0.273 | 0.225 | 0.191 | 0.265 | 0.226 | 0.202 | 0.195 | 0.264 | 0.326 | 0.242 | 0.244 | 0.227 | 0.242 | 0.215 | 0.215 | 0.166
NCI-H650 | 0.922 | 0.849 | 0.951 | 0.854 | 0.87 | 0.856 | 0.674 | 0.72 | 0.683 | 0.559 | 0.428 | 0.481 | 0.599 | 0.411 | 1.01 | 0.844 | 1.19 | 1.21 | 0.684 | 1.01
LOU-NH91 | 0.371 | 0.424 | 0.393 | 0.433 | 0.418 | 0.523 | 0.574 | 0.69 | 0.542 | 0.399 | 0.421 | 0.486 | 0.424 | 0.4 | 0.76 | 0.754 | 0.806 | 0.736 | 0.683 | 0.488
NCI-H1650 | 0.31 | 0.291 | 0.344 | 0.284 | 0.3 | 0.907 | – | 0.8 | 0.796 | 0.295 | – | 0.307 | 0.264 | 0.28 | 0.903 | – | 1.09 | 0.772 | 0.598 | 0.612
NCI-H3122 | 0.206 | 0.196 | 0.199 | 0.187 | 0.187 | 0.257 | 0.212 | 0.208 | 0.299 | 0.95 | 0.778 | 0.675 | 0.739 | 0.553 | 1.03 | 1.02 | 1.05 | 0.992 | 1.04 | 0.209
PC-3 [JPC-3] | 0.514 | 0.384 | 0.462 | 0.414 | 0.431 | 0.51 | 0.453 | 0.447 | 0.355 | 0.46 | 0.339 | 0.286 | 0.25 | 0.33 | 0.445 | 0.425 | 0.428 | 0.472 | 0.416 | 0.4
NCI-H1651 | 0.553 | 0.539 | 0.57 | 0.569 | 0.54 | 0.911 | 0.85 | 0.817 | 0.82 | 0.483 | 0.426 | 0.407 | 0.386 | 0.381 | 0.925 | 0.841 | 0.763 | 0.834 | 0.803 | 0.855
NCI-H2087 | 0.763 | 0.668 | 0.664 | 0.671 | 0.652 | 0.985 | 0.933 | 0.93 | 1.02 | 0.992 | 0.804 | 0.825 | 0.852 | 0.715 | 0.973 | 1.07 | 1.09 | 0.946 | 0.929 | 0.845
